US8664225B2, “1-[2-(2,4-dimethylphenylsulfanyl)-phenyl] piperazine as a compound with combined serotonin reuptake, 5-HT3 and 5-HT1A activity for the treatment of pain or residual symptoms in depression relating to sleep and cognition” (H. Lundbeck A/S, priority 2007, dated 2014)

Assays:
[1] = molecular target: Human serotonin transporter (Homo sapiens, UniProt P31645); experiment: Human serotonin transporter, blockade of 5-HT uptake; assay type: biochemical
[2] = molecular target: T1, Human 5-HT3A receptor (Homo sapiens, UniProt P46098); experiment: Human 5-HT3A receptor functional assay; assay type: biochemical; conditions: read-out: IC50 (antagonism in functional assay)
T1 sequence (P46098 24-478): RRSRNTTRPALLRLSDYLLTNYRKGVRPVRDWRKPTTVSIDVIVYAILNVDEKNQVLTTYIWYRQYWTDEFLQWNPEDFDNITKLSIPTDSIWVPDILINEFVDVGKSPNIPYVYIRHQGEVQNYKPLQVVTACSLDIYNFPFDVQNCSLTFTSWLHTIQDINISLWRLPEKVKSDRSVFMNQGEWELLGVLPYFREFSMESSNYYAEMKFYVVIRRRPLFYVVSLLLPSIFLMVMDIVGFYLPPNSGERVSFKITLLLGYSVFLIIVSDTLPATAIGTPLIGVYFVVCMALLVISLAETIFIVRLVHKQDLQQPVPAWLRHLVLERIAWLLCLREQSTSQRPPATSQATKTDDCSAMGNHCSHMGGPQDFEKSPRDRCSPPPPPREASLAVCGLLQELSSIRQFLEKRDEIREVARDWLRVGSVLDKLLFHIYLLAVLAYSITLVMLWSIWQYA

[3] = molecular target: T2, human 5HT3 receptor (Homo sapiens, UniProt P46098); experiment: Human 5HT3 receptor in vitro binding assay
T2 sequence (P46098 24-478): T1 sequence (P46098 24-478)

[4] = tested on: patients; experiment: Clinical trial in patients, sexually related adverse effects reported; assay type: in vivo, human; conditions: approximately 100 patients
Description: (§1) The HAM-D scale may be used to assess the severity of depression in patients by means of a 24 items questionnaire. Item 4, 5 and 6 of the scale relate to how the patients sleep, i.e. is it easy to fall asleep (insomnia Early), does the patient wake up during the night (Insomnia Middle), and does the patient wake up early in the morning (Insomnia Late). The compound was tested at 5 and 10 mg daily against placebo with approximately 100 patients per arm.
This notion was further supported by clinical trials conducted in patients. The above mentioned clinical trial in patients also captured sexual adverse effects reported by the patients.

[5] = tested on: healthy subjects; experiment: Clinical trials in healthy subjects, sexual dysfunction reported; assay type: in vivo, human; conditions: of 114 healthy subjects exposed
[6] = tested on: mice; experiment: Mouse intradermal formalin test; assay type: in vivo; conditions: formalin 4.5% into hind paw
Description: In this model, mice receive an injection of formalin (4.5%, 20 μl) into the left hind paw. The irritation caused by the formalin injection elicits a characteristic biphasic behavioural response, as quantified by the amount of time spent licking the injured paw. The first phase (˜0-10 minutes) represents direct chemical irritation and nociception, whereas the second (˜20-30 minutes) is thought to represent pain of neuropathic origin. The two phases are separated by a quiescent period in which behaviour returns to normal. The effectiveness of test compounds to reduce the painful stimuli is assessed by counting the amount of time spent licking the injured paw in the two phases.

[7] = tested on: patients; experiment: Clinical trial in patients, HAM-D sleep items 4, 5 and 6; assay type: in vivo, human; conditions: 5 and 10 mg daily against placebo, 6 weeks, approximately 100 patients per arm, HBr salt, FIGS. 23-25
Description: as §1

[8] = molecular target: T3, Rat 5-HT3 receptor (Rattus norvegicus, UniProt P35563); experiment: Rat 5-HT3 receptor functional assay (antagonism); assay type: biochemical
T3 sequence (P35563 24-483): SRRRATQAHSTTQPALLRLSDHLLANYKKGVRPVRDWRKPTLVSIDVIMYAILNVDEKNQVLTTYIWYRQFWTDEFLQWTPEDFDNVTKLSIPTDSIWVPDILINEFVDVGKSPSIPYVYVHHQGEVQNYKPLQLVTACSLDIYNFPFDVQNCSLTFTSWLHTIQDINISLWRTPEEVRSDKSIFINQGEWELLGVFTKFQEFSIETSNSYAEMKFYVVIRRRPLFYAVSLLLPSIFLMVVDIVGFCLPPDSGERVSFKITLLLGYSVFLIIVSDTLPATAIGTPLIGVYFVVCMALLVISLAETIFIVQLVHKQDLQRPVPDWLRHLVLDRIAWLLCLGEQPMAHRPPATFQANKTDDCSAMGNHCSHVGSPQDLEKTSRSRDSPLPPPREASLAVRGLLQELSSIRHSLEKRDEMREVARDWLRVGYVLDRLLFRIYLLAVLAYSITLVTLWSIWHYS

Chain of Human serotonin transporter (P31645 whole entry): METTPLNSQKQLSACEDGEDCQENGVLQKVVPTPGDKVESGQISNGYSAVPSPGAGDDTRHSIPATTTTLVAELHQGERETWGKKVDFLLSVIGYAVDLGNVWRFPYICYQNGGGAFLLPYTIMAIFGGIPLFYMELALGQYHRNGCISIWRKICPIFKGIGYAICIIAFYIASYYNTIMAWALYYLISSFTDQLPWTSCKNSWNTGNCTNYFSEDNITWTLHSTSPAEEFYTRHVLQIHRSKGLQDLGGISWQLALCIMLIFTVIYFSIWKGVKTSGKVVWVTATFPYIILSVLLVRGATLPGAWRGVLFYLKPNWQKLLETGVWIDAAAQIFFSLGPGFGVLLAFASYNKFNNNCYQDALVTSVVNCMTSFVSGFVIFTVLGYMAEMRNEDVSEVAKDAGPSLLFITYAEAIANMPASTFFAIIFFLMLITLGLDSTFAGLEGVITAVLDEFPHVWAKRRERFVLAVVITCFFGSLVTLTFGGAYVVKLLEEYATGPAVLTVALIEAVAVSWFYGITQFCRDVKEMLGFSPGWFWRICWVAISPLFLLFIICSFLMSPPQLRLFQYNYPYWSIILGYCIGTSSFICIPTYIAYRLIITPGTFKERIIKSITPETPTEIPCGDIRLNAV

Cc1ccc(Sc2ccccc2N2CCNCC2)c(C)c1 [compound I, 1-[2-(2,4-dimethylphenylsulfanyl)-phenyl]piperazine]
IC50 [1]: 0.04 µM
IC50 [2]: ~0.02 µM
Ki [3]: 0.0045 µM
number of patients reporting Anorgasmia ([4]; 5 mg daily): 0
number of patients reporting Ejaculation delayed ([4]; 5 mg daily): 0
number of patients reporting Erectile dysfunction ([4]; 5 mg daily): 0
number of patients reporting Libido decreased ([4]; 5 mg daily): 1
number of patients reporting Loss of libido ([4]; 5 mg daily): 1
number of patients reporting Orgasm abnormal ([4]; 5 mg daily): 0
number of patients reporting Orgasmic sensation decreased ([4]; 5 mg daily): 0
number of patients reporting Anorgasmia ([4]; 10 mg daily): 0
number of patients reporting Ejaculation delayed ([4]; 10 mg daily): 0
number of patients reporting Erectile dysfunction ([4]; 10 mg daily): 0
number of patients reporting Libido decreased ([4]; 10 mg daily): 1
number of patients reporting Loss of libido ([4]; 10 mg daily): 0
number of patients reporting Orgasm abnormal ([4]; 10 mg daily): 0
number of patients reporting Orgasmic sensation decreased ([4]; 10 mg daily): 0
number of subjects reporting sexual dysfunction [5]: one
first phase scores (time spent licking the paw, 0-5 minutes) ([6]; FIG. 18a, highest dose): significant reduction
second phase pain scores (time spent licking the paw, 20-30 minutes) ([6]; FIG. 18b): significant reduction
sleep pattern, HAM-D items 4, 5 and 6 (Insomnia Early, Middle, Late) [7]: large and dose dependent improvement
IC50 [8]: 0.0002 µM
